Tests used:
[1] = target: T1, F508delCFTR in primary hBE cells with F508del/F508del CFTR mutation (Homo sapiens, UniProt P13569, DEL508-508); test: Transepithelial Clamp Circuit on Human Bronchial Epithelial Cells Conductance Assay (hBE-TECC); assay type: cell-based; conditions: for EC50: primary hBE cells F508del/F508del, 18-24 hours at 37° C., equivalent short circuit current, 6 concentrations
T1 construct: cells isolated from CF patients with the homozygous mutation; endogenous in cells; host or cells: primary human bronchial epithelial (hBE) cells from F508del/F508del CF patients
T1 sequence (P13569 with tags, fused parts or gaps DEL508-508): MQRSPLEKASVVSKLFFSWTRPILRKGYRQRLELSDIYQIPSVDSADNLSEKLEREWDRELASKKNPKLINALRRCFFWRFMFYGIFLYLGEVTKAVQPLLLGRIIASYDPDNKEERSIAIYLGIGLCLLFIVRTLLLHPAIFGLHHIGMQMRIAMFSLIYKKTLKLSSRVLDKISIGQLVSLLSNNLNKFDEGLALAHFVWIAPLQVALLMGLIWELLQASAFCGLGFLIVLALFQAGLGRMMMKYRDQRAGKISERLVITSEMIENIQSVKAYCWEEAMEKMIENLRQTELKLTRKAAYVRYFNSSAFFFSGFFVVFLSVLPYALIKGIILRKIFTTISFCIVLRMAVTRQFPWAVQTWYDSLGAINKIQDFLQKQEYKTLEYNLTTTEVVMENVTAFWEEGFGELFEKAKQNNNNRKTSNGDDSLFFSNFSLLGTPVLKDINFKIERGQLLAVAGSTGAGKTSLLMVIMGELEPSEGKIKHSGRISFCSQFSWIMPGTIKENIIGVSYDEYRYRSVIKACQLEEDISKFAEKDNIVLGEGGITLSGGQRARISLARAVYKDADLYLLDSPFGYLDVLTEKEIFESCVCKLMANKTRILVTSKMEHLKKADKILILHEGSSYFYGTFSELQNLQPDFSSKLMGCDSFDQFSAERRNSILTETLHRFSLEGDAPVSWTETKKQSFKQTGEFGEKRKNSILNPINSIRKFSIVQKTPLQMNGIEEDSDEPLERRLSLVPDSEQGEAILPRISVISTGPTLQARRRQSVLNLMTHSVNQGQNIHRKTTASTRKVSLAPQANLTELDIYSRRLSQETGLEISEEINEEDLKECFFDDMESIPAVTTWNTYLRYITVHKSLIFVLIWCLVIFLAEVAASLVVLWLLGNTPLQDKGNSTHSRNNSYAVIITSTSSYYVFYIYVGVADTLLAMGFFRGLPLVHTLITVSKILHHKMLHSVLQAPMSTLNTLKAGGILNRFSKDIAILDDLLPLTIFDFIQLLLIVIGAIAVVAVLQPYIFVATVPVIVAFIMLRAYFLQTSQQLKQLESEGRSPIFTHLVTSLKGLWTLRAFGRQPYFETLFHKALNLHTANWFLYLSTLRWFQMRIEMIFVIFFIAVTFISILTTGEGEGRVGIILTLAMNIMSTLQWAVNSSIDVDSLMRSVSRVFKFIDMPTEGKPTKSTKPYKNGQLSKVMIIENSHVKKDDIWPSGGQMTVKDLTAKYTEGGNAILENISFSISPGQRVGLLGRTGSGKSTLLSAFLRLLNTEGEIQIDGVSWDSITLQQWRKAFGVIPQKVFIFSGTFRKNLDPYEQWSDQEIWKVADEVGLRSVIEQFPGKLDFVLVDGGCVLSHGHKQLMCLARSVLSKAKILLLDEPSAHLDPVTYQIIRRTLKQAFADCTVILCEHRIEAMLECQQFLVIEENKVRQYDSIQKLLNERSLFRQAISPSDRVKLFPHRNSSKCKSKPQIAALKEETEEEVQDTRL
Summary of the method: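 Primary F508del/F508del hBE cells grown 35 days at air-liquid interface, treated basolaterally with correctors 18-24 h at 37° C. Ieq (Vt/Rt) at 36.5° C, pH 7.4, after benzamil, forskolin 10 μM, control potentiator, bumetanide; 6 concentrations normalized to DMSO and 3 μM positive-control corrector, EC50 by 4-parameter fit.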

[2] = target: T2, F508delCFTR cell surface expression in CFBE41o-F508delCFTR-HRP cells (Homo sapiens, UniProt P13569, DEL508-508); test: Cell Surface Expression-Horse Radish Peroxidase (CSE-HRP) Assay; assay type: cell-based; conditions: for EC50: CFBE41o-F508delCFTR-HRP cells, 18-24 hours at 33° C., 8-point curve, highest concentration 20 μM; for Maximum % activity (%): maximum at any tested concentration, normalized to on-plate positive control (3 μM)
T2 construct: fused on or other part: Horseradish peroxidase (HRP) reporter inserted in the fourth exofacial (extracellular) loop of CFTR; expression is doxycycline-inducible
T2 sequence (P13569 with tags, fused parts or gaps DEL508-508 limits assumed): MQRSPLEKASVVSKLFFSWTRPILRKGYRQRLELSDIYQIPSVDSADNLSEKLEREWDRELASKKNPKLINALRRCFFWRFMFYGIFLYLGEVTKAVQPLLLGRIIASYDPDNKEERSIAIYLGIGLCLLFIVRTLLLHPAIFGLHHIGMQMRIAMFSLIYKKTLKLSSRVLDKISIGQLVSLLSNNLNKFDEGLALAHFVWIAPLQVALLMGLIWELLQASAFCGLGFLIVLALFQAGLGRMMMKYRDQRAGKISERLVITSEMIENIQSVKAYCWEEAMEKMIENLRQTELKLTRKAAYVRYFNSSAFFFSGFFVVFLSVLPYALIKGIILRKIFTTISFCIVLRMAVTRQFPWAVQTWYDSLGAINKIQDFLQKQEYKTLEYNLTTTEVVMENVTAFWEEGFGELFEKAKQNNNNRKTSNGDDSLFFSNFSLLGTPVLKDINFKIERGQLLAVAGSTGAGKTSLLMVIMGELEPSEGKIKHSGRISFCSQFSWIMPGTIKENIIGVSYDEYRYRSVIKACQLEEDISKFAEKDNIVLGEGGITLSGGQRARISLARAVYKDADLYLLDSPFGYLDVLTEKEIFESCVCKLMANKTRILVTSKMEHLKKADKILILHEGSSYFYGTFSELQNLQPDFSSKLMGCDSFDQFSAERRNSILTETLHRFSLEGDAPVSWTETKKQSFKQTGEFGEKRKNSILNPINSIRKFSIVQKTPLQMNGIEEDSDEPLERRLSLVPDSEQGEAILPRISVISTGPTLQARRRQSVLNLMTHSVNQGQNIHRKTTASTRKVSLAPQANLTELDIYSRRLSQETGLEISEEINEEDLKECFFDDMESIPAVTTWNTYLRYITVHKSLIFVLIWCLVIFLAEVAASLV
T2 sequence (P13569 919-1480 limits assumed, stated change not applied): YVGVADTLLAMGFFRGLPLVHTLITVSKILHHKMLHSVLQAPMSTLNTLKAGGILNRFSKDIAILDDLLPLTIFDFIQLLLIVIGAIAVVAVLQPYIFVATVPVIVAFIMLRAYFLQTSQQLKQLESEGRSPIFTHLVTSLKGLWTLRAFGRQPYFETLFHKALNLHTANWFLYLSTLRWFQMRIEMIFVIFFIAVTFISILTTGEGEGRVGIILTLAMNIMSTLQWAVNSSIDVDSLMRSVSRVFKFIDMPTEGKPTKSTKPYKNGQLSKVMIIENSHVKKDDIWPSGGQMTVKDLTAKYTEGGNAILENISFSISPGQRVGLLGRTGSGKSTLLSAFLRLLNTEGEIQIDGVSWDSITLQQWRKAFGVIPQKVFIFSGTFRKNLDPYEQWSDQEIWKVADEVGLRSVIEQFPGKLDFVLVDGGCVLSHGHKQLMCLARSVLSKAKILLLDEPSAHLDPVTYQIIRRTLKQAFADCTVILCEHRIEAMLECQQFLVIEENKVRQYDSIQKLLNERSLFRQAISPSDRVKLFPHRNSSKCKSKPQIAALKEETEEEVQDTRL
Summary of the method: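 CFBE41o- cells with HRP-tagged F508delCFTR, expression induced by 0.5 μg/mL doxycycline for 72 h at 37 °C, then compound for 18-24 h at 33 °C (8-point, 3-fold, top 20 μM). Surface HRP measured by luminol luminescence; % activity normalised to 3 μM positive-control corrector; EC50 from variable-slope sigmoidal fit, three replicate plates.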

[3] = relative to positive control (3 μM) coupled with control potentiator

| Compound | EC50 [1] [nM] | Maximum % activity (%) [1, 3] [%] | EC50 [2] [nM] | Maximum % activity (%) [2] [%] | Maximum % activity (%) ([1]; testing concentration 10 μM) |
| --- | --- | --- | --- | --- | --- |
| COc1ccc2c(c1)O[C@@H](c1ccc(C(=O)N3CCOCC3)cn1)C[C@H]2NC(=O)[C@@]1(C)COc2cc3c(cc21)OC(F)(F)O3 [Example 220, (7R)-2,2-difluoro-N-{(2R,4R)-7-methoxy-2-[5-(morpholine-4-carbonyl)pyridin-2-yl]-3,4-dihydro-2H-1-benzopyran-4-yl}-7-methyl-6,7-dihydro-2H-furo[2,3-f][1,3]benzodioxole-7-carboxamide] | 10 | 94 | 10 | 112 |  |
| COc1ccc2c(c1)O[C@@H](c1ccc(C(=O)N3CCN(CCO)CC3)cn1)C[C@H]2NC(=O)[C@@]1(C)COc2cc3c(cc21)OC(F)(F)O3 [Example 213, (7R)-2,2-difluoro-N-[(2R,4R)-2-{5-[4-(2-hydroxyethyl)piperazine-1-carbonyl]pyridin-2-yl}-7-methoxy-3,4-dihydro-2H-1-benzopyran-4-yl]-7-methyl-6,7-dihydro-2H-furo[2,3-f][1,3]benzodioxole-7-carboxamide] | 41 | 82 | 80 | 117 |  |
| Cc1ccc(NC(=O)C2(C)CCc3c2ccc2c3OCO2)cc1-c1cccc(C(=O)O)c1 (stereo not drawn) [Example 36, 2′-methyl-5′-[(6-methyl-7,8-dihydro-2H,6H-indeno[4,5-d][1,3]dioxole-6-carbonyl)amino][1,1′-biphenyl]-3-carboxylic acid] |  |  | 1240 | 79 | 77 |
| COc1ccc2c(c1)O[C@@H]([C@H]1CC[C@H](C(=O)O)CC1)C[C@H]2NC(=O)[C@@]1(C)CCc2cc3c(cc21)OC(F)(F)O3 [Example 168, trans-4-[(2R,4R)-4-{[(5S)-2,2-difluoro-5-methyl-6,7-dihydro-2H,5H-indeno[5,6-d][1,3]dioxole-5-carbonyl]amino}-7-methoxy-3,4-dihydro-2H-1-benzopyran-2-yl]cyclohexane-1-carboxylic acid] | 43 | 101 | 161 | 127 |  |

— patent publication US9840513B2 (AbbVie S.à.r.l., priority 2015, dated 2017)
